Experimental data as given in US10975077B2 (Novira Therapeutics, Inc., priority 2016, dated 2021).

Tested on: HBV (encapsidated HBV DNA, HepG2.2.15 cells)
Experiment: HBV replication inhibition assay, BDNA assay in HepG2.2.15 cells
Type: cell-based
Settings: Activity in BDNA-assay
Method in brief: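 Encapsidated HBV DNA in DNase-treated, proteinase K-lysed supernatant was measured by branched DNA after 6 days' compound exposure, refreshed on day 3, of HepG2.2.15 cells in 0.5% DMSO. Signals normalized to DMSO-treated wells; EC50 from nonlinear regression of inhibition against log concentration.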

Row | SMILES | EC50 [nM]
1 | CN1CC(CNCC(F)F)Cn2nc3c(c2C1=O)CN(C(=O)Nc1ccc(F)c(C(F)(F)F)c1)CC3 (single isomer, unassigned) [Compound 119_E1, (R*)-8-(((2,2-difluoroethyl)amino)methyl)-N-(4-fluoro-3-(trifluoromethyl)phenyl)-10-methyl-11-oxo-1,3,4,7,8,9,10,11-octahydro-2H-pyrido[4′,3′:3,4]pyrazolo[1,5-a][1,4]diazepine-2-carboxamide] | 100 to 500
2 | CN1CC(CNCC(F)F)Cn2nc3c(c2C1=O)CN(C(=O)Nc1ccc(F)c(C(F)(F)F)c1)CC3 (single isomer, unassigned) [Compound 119_E2, (S*)-8-(((2,2-difluoroethyl)amino)methyl)-N-(4-fluoro-3-(trifluoromethyl)phenyl)-10-methyl-11-oxo-1,3,4,7,8,9,10,11-octahydro-2H-pyrido[4′,3′:3,4]pyrazolo[1,5-a][1,4]diazepine-2-carboxamide] | 1 to 100
3 | C=CC(O)C1CN(C)C(=O)c2c3c(nn2C1)CC(C)N(C(=O)Nc1ccc(F)c(C#N)c1)C3 (single isomer, unassigned) [Compound 123_D1, (3R,8S*)—N-(3-cyano-4-fluorophenyl)-8-((R*)-1-hydroxyallyl)-3,10-dimethyl-11-oxo-1,3,4,7,8,9,10,11-octahydro-2H-pyrido[4′,3′:3,4]pyrazolo[1,5-a][1,4]diazepine-2-carboxamide] | 1 to 100
4 | C=CC(O)C1CN(C)C(=O)c2c3c(nn2C1)CC(C)N(C(=O)Nc1ccc(F)c(C#N)c1)C3 (single isomer, unassigned) [Compound 123_D2, (3R,8S*)—N-(3-cyano-4-fluorophenyl)-8-((S*)-1-hydroxyallyl)-3,10-dimethyl-11-oxo-1,3,4,7,8,9,10,11-octahydro-2H-pyrido[4′,3′:3,4]pyrazolo[1,5-a][1,4]diazepine-2-carboxamide] | 100 to 500
5 | CN1CC(CNCC(F)F)Cn2nc3c(c2C1=O)CN(C(=O)Nc1cc(Br)c(F)cc1F)CC3 (single isomer, unassigned) [Compound 125_E1, (R*)—N-(5-bromo-2,4-difluorophenyl)-8-(((2,2-difluoroethyl)amino)methyl)-10-methyl-11-oxo-1,3,4,7,8,9,10,11-octahydro-2H-pyrido[4′,3′:3,4]pyrazolo[1,5-a][1,4]diazepine-2-carboxamide] | 100 to 500
6 | CN1CC(CNCC(F)F)Cn2nc3c(c2C1=O)CN(C(=O)Nc1cc(Br)c(F)cc1F)CC3 (single isomer, unassigned) [Compound 125_E2, (S*)—N-(5-bromo-2,4-difluorophenyl)-8-(((2,2-difluoroethyl)amino)methyl)-10-methyl-11-oxo-1,3,4,7,8,9,10,11-octahydro-2H-pyrido[4′,3′:3,4]pyrazolo[1,5-a][1,4]diazepine-2-carboxamide] | 1 to 100
7 | CN1CC(CNCC(F)F)Cn2nc3c(c2C1=O)CN(C(=O)Nc1cc(Cl)c(F)cc1F)CC3 (single isomer, unassigned) [Compound 126_E2, (S*)—N-(5-chloro-2,4-difluorophenyl)-8-(((2,2-difluoroethyl)amino)methyl)-10-methyl-11-oxo-1,3,4,7,8,9,10,11-octahydro-2H-pyrido[4′,3′:3,4]pyrazolo[1,5-a][1,4]diazepine-2-carboxamide] | 100 to 500
8 | CN1CC(CNCC(F)F)Cn2nc3c(c2C1=O)CN(C(=O)Nc1ccc(F)c(C#N)c1F)CC3 (single isomer, unassigned) [Compound 127_E1, (R*)—N-(3-cyano-2,4-difluorophenyl)-8-(((2,2-difluoroethyl)amino)methyl)-10-methyl-11-oxo-1,3,4,7,8,9,10,11-octahydro-2H-pyrido[4′,3′:3,4]pyrazolo[1,5-a][1,4]diazepine-2-carboxamide] | 500 to 1000
9 | CN1CC(CNCC(F)F)Cn2nc3c(c2C1=O)CN(C(=O)Nc1ccc(F)c(C#N)c1F)CC3 (single isomer, unassigned) [Compound 127_E2, (S*)—N-(3-cyano-2,4-difluorophenyl)-8-(((2,2-difluoroethyl)amino)methyl)-10-methyl-11-oxo-1,3,4,7,8,9,10,11-octahydro-2H-pyrido[4′,3′:3,4]pyrazolo[1,5-a][1,4]diazepine-2-carboxamide] | 1 to 100
10 | CN1CC(CNCC(F)F)Cn2nc3c(c2C1=O)CN(C(=O)Nc1ccc(F)c(Cl)c1F)CC3 (single isomer, unassigned) [Compound 128_E1, (R*)—N-(3-chloro-2,4-difluorophenyl)-8-(((2,2-difluoroethyl)amino)methyl)-10-methyl-11-oxo-1,3,4,7,8,9,10,11-octahydro-2H-pyrido[4′,3′:3,4]pyrazolo[1,5-a][1,4]diazepine-2-carboxamide] | 100 to 500
11 | CN1CC(CNCC(F)F)Cn2nc3c(c2C1=O)CN(C(=O)Nc1ccc(F)c(Cl)c1F)CC3 (single isomer, unassigned) [Compound 128_E2, (S*)—N-(3-chloro-2,4-difluorophenyl)-8-(((2,2-difluoroethyl)amino)methyl)-10-methyl-11-oxo-1,3,4,7,8,9,10,11-octahydro-2H-pyrido[4′,3′:3,4]pyrazolo[1,5-a][1,4]diazepine-2-carboxamide] | 1 to 100
12 | CN1CC(CNCC(F)F)Cn2nc3c(c2C1=O)CN(C(=O)Nc1ccc(F)c(Br)c1F)CC3 (single isomer, unassigned) [Compound 129_E1, (R*)—N-(3-bromo-2,4-difluorophenyl)-8-(((2,2-difluoroethyl)amino)methyl)-10-methyl-11-oxo-1,3,4,7,8,9,10,11-octahydro-2H-pyrido[4′,3′:3,4]pyrazolo[1,5-a][1,4]diazepine-2-carboxamide] | 100 to 500
13 | CN1CC(CNCC(F)F)Cn2nc3c(c2C1=O)CN(C(=O)Nc1ccc(F)c(Br)c1F)CC3 (single isomer, unassigned) [Compound 129_E2, (S*)—N-(3-bromo-2,4-difluorophenyl)-8-(((2,2-difluoroethyl)amino)methyl)-10-methyl-11-oxo-1,3,4,7,8,9,10,11-octahydro-2H-pyrido[4′,3′:3,4]pyrazolo[1,5-a][1,4]diazepine-2-carboxamide] | 1 to 100
14 | CN1CC(CNCC(F)F)Cn2nc3c(c2C1=O)CN(C(=O)Nc1ccc(F)c(Br)c1)CC3 (single isomer, unassigned) [Compound 130_E2, (S*)—N-(3-bromo-4-fluorophenyl)-8-(((2,2-difluoroethyl)amino)methyl)-10-methyl-11-oxo-1,3,4,7,8,9,10,11-octahydro-2H-pyrido[4′,3′:3,4]pyrazolo[1,5-a][1,4]diazepine-2-carboxamide] | 1 to 100

Same assay, conditions: Hepatitis B virus, HepG2.2.15, Activity in BDNA-assay

Row | SMILES | EC50 [nM]
15 | CCC(O)C1CN(C)C(=O)c2c3c(nn2C1)CCN(C(=O)Nc1cc(F)c(F)c(F)c1)C3 (single isomer, unassigned) [Compound 104_E1, (R*)-8-((S*)-1-hydroxypropyl)-10-methyl-11-oxo-N-(3,4,5-trifluorophenyl)-1,3,4,7,8,9,10,11-octahydro-2H-pyrido[4′,3′:3,4]pyrazolo[1,5-a][1,4] diazepine-2-carboxamide] | 1 to 100
16 | CCC(O)C1CN(C)C(=O)c2c3c(nn2C1)CCN(C(=O)Nc1cc(F)c(F)c(F)c1F)C3 (single isomer, unassigned) [Compound 105_E1, (R*)-8-((S*)-1-hydroxypropyl)-10-methyl-11-oxo-N-(2,3,4,5-tetrafluorophenyl)-1,3,4,7,8,9,10,11-octahydro-2H-pyrido[4′,3′:3,4]pyrazolo[1,5-a][1,4]diazepine-2-carboxamide] | 1 to 100
17 | CN1CC(CNCC(F)F)Cn2nc3c(c2C1=O)CN(C(=O)Nc1ccc(F)c(C#N)c1)CC3 (single isomer, unassigned) [Compound 118_E1, (R*)—N-(3-cyano-4-fluorophenyl)-8-(((2,2-difluoroethyl)amino)methyl)-10-methyl-11-oxo-1,3,4,7,8,9,10,11-octahydro-2H-pyrido[4′,3′:3,4]pyrazolo[1,5-a][1,4]diazepine-2-carboxamide] | 100 to 500
18 | CN1CC(CNCC(F)F)Cn2nc3c(c2C1=O)CN(C(=O)Nc1ccc(F)c(C#N)c1)CC3 (single isomer, unassigned) [Compound 118_E2, (S*)—N-(3-cyano-4-fluorophenyl)-8-(((2,2-difluoroethyl)amino)methyl)-10-methyl-11-oxo-1,3,4,7,8,9,10,11-octahydro-2H-pyrido[4′,3′:3,4]pyrazolo[1,5-a][1,4]diazepine-2-carboxamide] | 1 to 100
19 | CN1CC(CNCC(F)F)Cn2nc3c(c2C1=O)CN(C(=O)Nc1cc(Cl)c(F)cc1F)CC3 (single isomer, unassigned) [Compound 126_E1, (R*)—N-(5-chloro-2,4-difluorophenyl)-8-(((2,2-difluoroethyl)amino)methyl)-10-methyl-11-oxo-1,3,4,7,8,9,10,11-octahydro-2H-pyrido[4′,3′:3,4]pyrazolo[1,5-a][1,4]diazepine-2-carboxamide] | 100 to 500
20 | CN1CC(CNCC(F)F)Cn2nc3c(c2C1=O)CN(C(=O)Nc1ccc(F)c(Br)c1)CC3 (single isomer, unassigned) [Compound 130_E1, (R*)—N-(3-bromo-4-fluorophenyl)-8-(((2,2-difluoroethyl)amino)methyl)-10-methyl-11-oxo-1,3,4,7,8,9,10,11-octahydro-2H-pyrido[4′,3′:3,4]pyrazolo[1,5-a][1,4]diazepine-2-carboxamide] | 1 to 100
21 | CN1CC(CNCC(F)F)Cn2nc3c(c2C1=O)CN(C(=O)Nc1ccc(F)c(C(F)(F)F)c1F)CC3 (single isomer, unassigned) [Compound 131_E1, (R*)—N-(2,4-difluoro-3-(trifluoromethyl)phenyl)-8-(((2,2-difluoroethyl)amino)methyl)-10-methyl-11-oxo-1,3,4,7,8,9,10,11-octahydro-2H-pyrido[4′,3′:3,4]pyrazolo[1,5-a][1,4]diazepine-2-carboxamide] | 100 to 500
